Experimental data: patent publication US11505592B2, “Diagnosis and therapy of multiple sclerosis” (PRINDEX S.R.L., priority 2015, dated 2022)

Legend:
MS sera = assay: PEPSCAN-based ELISA, binding of MS sera to library peptides; design: species or system human; conditions: ELISA binding value, MS sera n = 9
From the text: (§1) The linear and CLIPS peptides are synthesized based on the amino acid sequence of the target protein using standard Fmoc-chemistry and deprotected using […] with scavengers. The constrained peptides are synthesized on chemical scaffolds in order to reconstruct conformational epitopes, using Chemically Linked Peptides on Scaffolds (CLIPS) technology (Timmerman et al. (2007). For example, the single looped peptides are synthesized containing a dicysteine, which was cyclized by treating with alpha, alpha′-dibromoxylene and the size of the loop is varied by introducing cysteine residues at variable spacing. If other cysteines besides the newly introduced cysteines are present, they are replaced by alanine. The side-chains of the multiple cysteines in the peptides are coupled to CLIPS templates by reacting onto credit-card format polypropylene PEPSCAN cards (455 peptide formats/card) with a 0.5 mM solution of CLIPS template such as 1,3-bis (bromomethyl) benzene in ammonium bicarbonate (20 mM, pH 7.9)/acetonitrile (1:1(v/v)). The cards are gently shaken in the solution for 30 to 60 minutes while completely covered in solution. Finally, the cards are washed extensively with excess of H2O and sonicated in distrupt-buffer containing 1 percent SDS/0.1 percent beta-mercaptoethanol in PBS (pH 7.2) at 70° C. for 30 minutes, followed by sonication in H2O for another 45 minutes.
(§2) The binding of antibody to each peptide is tested in a PEPSCAN-based ELISA. The 455-well credit card format polypropylene cards containing the covalently linked peptides are incubated with primary antibody solution for example consisting of 1/1000 diluted serum in blocking solution, for example 4% horse serum, 5% ovalbumin (w/v) in PBS/1% Tween. After washing, the peptides are incubated with a 1/1000 dilution of antibody peroxidase conjugate for one hour at 25° C. After washing, the peroxidase substrate 2,2′-azino-di-3-ethylbenzthiazoline sulfonate (ABTS) and 2 microlitres of 3 percent H2O2 are added. After one hour, the color development are measured. The color development are quantified with a charge coupled device (CCD)-camera and an image processing system (Slootstra et al., 1996).
(§3) The raw data are optical values obtained by a CCD-camera calibrated to export absorption values compatible with a standard 96-well plate ELISA-reader. First the CCD-camera makes a picture of the card before peroxidase coloring and then again a picture after the peroxidase coloring. These two pictures are substracted from each other yielding a binding value for each peptide.
(§4) All peptides have been synthesized in a peptide array format and the binding of 20 different sera to all peptide libraries were measured in an ELISA based set up following the procedure described in detail in the method section “Peptide synthesis and screening assays”. In particular 2 sets of experiments were performed on the 2 libraries by using 2 different dilutions of the human patients sera. In the first set of experiment the 20 sera were used at 1:2500 dilutions, while in the second experiment the dilution of the sera was 1:1000. The binding of the different sera to all peptides was quantified and analyzed in detail (Tables 1 and 2, FIGS. 15A, B, C, D and […]

CTRL sera = assay: PEPSCAN-based ELISA, binding of control (CTRL) sera to library peptides; design: species or system human; conditions: ELISA binding value, CTRLs n = 10
From the text: as §1, §2, §3, §4

Sequence	MEAN MS (MS sera; NOX2 library)	MEAN CTRL (CTRL sera; NOX2 library)	MEAN MS (MS sera; 5HT2A receptor library)	MEAN CTRL (CTRL sera; 5HT2A receptor library)
CGDRQNESYLNFARKRCGDRQNESYLNFARKRC [SEQ ID NO: 85]	775.500	404.05	–	–
CKISEWGKIKC [SEQ ID NO: 108]	672.833	367.95	–	–
CNESYLNFARKAAKNPC [SEQ ID NO: 86]	702.222	411.15	–	–
CVALSELGDRQNESYLCQNESYLNFARKRIKNC [SEQ ID NO: 110]	761.778	406.75	–	–
NITVCEQKISAAGKI [SEQ ID NO: 96]	564.500	314.2	–	–
CNFARKRIKNPEGGLYCSLAVHNITVSEQKISC [SEQ ID NO: 106]	599.000	330.8	–	–
CSLSSTTNSLMQLNCMDILSEENTSLSSC [Peptide 18]	–	–	323.72	188.90
YLNFARKRI [SEQ ID NO: 140]	601.667	345.85	–	–
CVNARVNNSDPYSVALCTVSEQKISEWGKIKEC [SEQ ID NO: 154]	799.667	455.6	–	–
NESYLNFARKRIKNP [SEQ ID NO: 109]	602.889	333.75	–	–
QDDSKVFKEGAALLA [Peptide 33]	–	–	439.11	263.70
CGDRQNESYLNFARKRCQNESYLNFARKRIKNC [SEQ ID NO: 70]	831.278	412.7	–	–
CESLAVHNITVSEQKICQNESYLNFARKRIKNC [SEQ ID NO: 74]	689.556	354.9	–	–
CNITVSEQKISAAGKIC [SEQ ID NO: 105]	828.167	460.55	–	–
CLYGYRWPLPSKLSCYSNDFNSGEANTSC [Peptide 32]	–	–	555.67	288.50
CLQDDSKVFKEGSSCKESSNEDVIGALLC [Peptide 48]	–	–	632.28	373.15
LGDRQNESYLNFARK [SEQ ID NO: 104]	457.556	252.4	–	–
CSELGDRQNESYLNFACQNESYLNFARKRIKNC [SEQ ID NO: 80]	773.167	398.9	–	–
CNITVSEQKISEWGKICSYLNFARKRIKNPEGC [SEQ ID NO: 99]	738.444	397.7	–	–
CHGAERIVRGQTAESLCSYLNFARKRIKNPEGC [SEQ ID NO: 82]	755.722	417.5	–	–
CSSLSLLHLQEKNWCMDILSEENTSLSSC [Peptide 45]	–	–	318.17	198.50
YRWPLPSKL [Peptide 5]	–	–	566.00	285.70

Sequence	MEAN MS (MS sera; NOX2 library)	MEAN CTRL (CTRL sera; NOX2 library)	MEAN MS (MS sera; 5HT2A receptor library)	MEAN CTRL (CTRL sera; 5HT2A receptor library)
CQKISEWGKIKAAPIPC [SEQ ID NO: 153]	710.778	402.15	–	–
CENTSLSSTTNSLMCMDILSEENTSLSSC [Peptide 17]	–	–	316.22	175.00
CEWSVNARVNNSDPYSCVSEQKISEWGKIKESC [SEQ ID NO: 155]	760.083	433.775	–	–
CLTILYGYRWPLPSCMDILSEENTSLSSC [Peptide 2]	–	–	421.56	228.85
KISEWGKIK [SEQ ID NO: 83]	404.500	223.9	–	–
CQNESYLNFARKRIKNCVSEQKISEWGKIKESC [SEQ ID NO: 111]	747.139	419.075	–	–
WGKIKECPI [SEQ ID NO: 116]	501.389	303.25	–	–
CNSLMQLNDDTRLYCYSNDFNSGEANTSC [Peptide 34]	–	–	459.72	268.10
CLNFARKRIKNAAGGLC [SEQ ID NO: 92]	691.444	367	–	–
CNFARKRIKNPEGGLYCQNESYLNFARKRIKNC [SEQ ID NO: 65]	801.056	410.85	–	–
CHGAERIVRGQTAESLCQKISEWGKIKESPIPC [SEQ ID NO: 101]	734.917	407.625	–	–
QKISEWGKIKAAPIP [SEQ ID NO: 88]	701.889	364.3	–	–
CSYLNFARKRIKNPEGCQNESYLNFARKRIKNC [SEQ ID NO: 61]	778.278	398.9	–	–
CHGAERIVRGQTAESLCQNESYLNFARKRIKNC [SEQ ID NO: 73]	748.111	407.2	–	–
CLQDDSKVFKEGSSCMDILSEENTSLSSC [Peptide 7]	–	–	434.67	233.80
CSEQKISEWGKIKESPC [SEQ ID NO: 114]	501.167	271.75	–	–
CAVHNITVSEQKISEWCQNESYLNFARKRIKNC [SEQ ID NO: 126]	685.667	370.15	–	–
LNFARKRIKNAAGGL [SEQ ID NO: 91]	354.778	187.85	–	–
CSYLNFARKRIKNPEGCNFARKRIKNPEGGLYC [SEQ ID NO: 138]	659.944	371.8	–	–
CQNESYLNFARKRIKNCSYLNFARKRIKNPEGC [SEQ ID NO: 135]	711.556	396.7	–	–
CQKISEWGKIKESPIPCVSEQKISEWGKIKESC [SEQ ID NO: 98]	815.972	450.975	–	–
WCVNARVNNSDPYSV [SEQ ID NO: 121]	283.889	163.8	–	–

Sequence	MEAN MS (MS sera; NOX2 library)	MEAN CTRL (CTRL sera; NOX2 library)	MEAN MS (MS sera; 5HT2A receptor library)	MEAN CTRL (CTRL sera; 5HT2A receptor library)
CFNVEWSVNARVNNSDCGDRQNESYLNFARKRC [SEQ ID NO: 129]	792.889	423.15	–	–
CESLAVHNITVSEQKICSYLNFARKRIKNPEGC [SEQ ID NO: 79]	639.611	357.1	–	–
CGDRQNESYLNFARKRCSYLNFARKRIKNPEGC [SEQ ID NO: 131]	730.222	401.95	–	–
CQTAESLAVHNITVSECVSEQKISEWGKIKESC [SEQ ID NO: 139]	590.111	339.65	–	–
QNESYLNFARKRIKN [SEQ ID NO: 63]	610.778	309.65	–	–
CDSKVFKEGSSLLACKESSNEDVIGALLC [Peptide 16]	–	–	604.03	347.50
CQNESYLNFARKRIKNC [SEQ ID NO: 90]	667.389	361.75	–	–
CAVHNITVSEQKISEWCSYLNFARKRIKNPEGC [SEQ ID NO: 133]	648.556	375.55	–	–
CLYGYRWPLPSKLSCKESSNEDVIGALLC [Peptide 20]	–	–	689.03	390.93
CRVNNSDPYSVALSELCVSEQKISEWGKIKESC [SEQ ID NO: 151]	731.111	422.275	–	–
CTRLYSNDFNSGEACKESSNEDVIGALLC [Peptide 42]	–	–	561.03	333.60
CNDDTRLYSNDFNSCMDILSEENTSLSSC [Peptide 24]	–	–	350.67	196.45
CQNESYLNFARKRIKNCNFARKRIKNPEGGLYC [SEQ ID NO: 150]	697.056	392.3	–	–
GKIKECPIP [SEQ ID NO: 102]	594.611	324.35	–	–
CDSKVFKEGSSLLACSENRTNLSSEGSLC [Peptide 46]	–	–	512.94	296.70
CVNARVNNSDPYSVALCVSEQKISEWGKIKESC [SEQ ID NO: 128]	772.583	436.575	–	–
CMQLNDDTRLYSNDCMDILSEENTSLSSC [Peptide 9]	–	–	379.67	212.40
YLNFARKRIKAAEGG [SEQ ID NO: 119]	299.167	181.3	–	–
CDSKVFKEGSSLLACSGEANTSDAFNWTC [Peptide 37]	–	–	623.06	333.75
CVFKEGSSLLADDNCSDAFNWTVDSENRC [Peptide 47]	–	–	399.89	244.50
CEWSVNARVNNSDPYSCQNESYLNFARKRIKNC [SEQ ID NO: 103]	714.944	372.8	–	–
